Source: ChEMBL document CHEMBL4507298 (2021)

Experiments:
[1] = molecular target: Sodium-dependent dopamine transporter (Homo sapiens) (UniProt Q01959); conditions: Compound concentration 10.0 uM
[2] = molecular target: NUAK family SNF1-like kinase 2 (Homo sapiens) (UniProt Q9H093); conditions: Compound concentration 1000.0 nM
[3] = molecular target: Serine/threonine-protein kinase WNK3 (Homo sapiens) (UniProt Q9BYP7); conditions: Compound concentration 1000.0 nM
[4] = molecular target: Interleukin-1 receptor-associated kinase 4 (Homo sapiens) (UniProt Q9NWZ3); conditions: Compound concentration 1000.0 nM
[5] = molecular target: Ephrin type-A receptor 3 (Homo sapiens) (UniProt P29320); conditions: Compound concentration 1000.0 nM
[6] = molecular target: Rhodopsin kinase GRK7 (Homo sapiens) (UniProt Q8WTQ7); conditions: Compound concentration 1000.0 nM
[7] = molecular target: High affinity choline transporter 1 (Homo sapiens) (UniProt Q9GZV3); assay: Choline transporter (h) (CHT1) CEREP ligand profiling; conditions: Compound concentration 10.0 uM
CYP2D6 = CYP2D6 (Homo sapiens, UniProt P10635); assay: CYP2D6 inhibition CEREP ligand profiling; conditions: compound concentration 10 uM
Phosphodiesterase 3 = Phosphodiesterase 3 (Homo sapiens, UniProt Q14432+Q13370); assay: PDE3 (h) CEREP ligand profiling; type: protein assay
[8] = molecular target: Serine/threonine-protein kinase LATS1 (Homo sapiens) (UniProt O95835); conditions: Compound concentration 1000.0 nM
[9] = molecular target: RAC-gamma serine/threonine-protein kinase (Homo sapiens) (UniProt Q9Y243); conditions: Compound concentration 1000.0 nM
[10] = molecular target: T1, Alpha-2A adrenergic receptor (Homo sapiens) (UniProt P08913); assay: alpha 2A (h) CEREP ligand profiling; conditions: Compound concentration 10.0 uM
T1 sequence (whole entry): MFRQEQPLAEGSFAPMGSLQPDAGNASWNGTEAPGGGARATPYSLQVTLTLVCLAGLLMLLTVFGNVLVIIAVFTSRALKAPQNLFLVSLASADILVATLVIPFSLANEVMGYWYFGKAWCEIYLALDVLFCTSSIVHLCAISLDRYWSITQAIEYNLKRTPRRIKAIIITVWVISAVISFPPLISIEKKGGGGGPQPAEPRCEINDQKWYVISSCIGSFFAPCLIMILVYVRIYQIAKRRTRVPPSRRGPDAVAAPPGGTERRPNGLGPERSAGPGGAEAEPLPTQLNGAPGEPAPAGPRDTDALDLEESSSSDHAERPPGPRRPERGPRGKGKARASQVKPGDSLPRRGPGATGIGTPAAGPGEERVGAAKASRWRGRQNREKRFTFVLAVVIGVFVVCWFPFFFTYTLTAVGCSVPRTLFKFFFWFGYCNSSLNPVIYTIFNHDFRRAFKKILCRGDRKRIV

[11] = molecular target: LIM domain kinase 2 (Homo sapiens) (UniProt P53671); conditions: Compound concentration 1000.0 nM
[12] = molecular target: Cyclin-dependent kinase 3 (Homo sapiens) (UniProt Q00526); conditions: Compound concentration 1000.0 nM
[13] = molecular target: Serine/threonine-protein kinase Nek4 (Homo sapiens) (UniProt P51957); conditions: Compound concentration 1000.0 nM
[14] = molecular target: Serine/threonine-protein kinase Sgk1 (Homo sapiens) (UniProt O00141); conditions: Compound concentration 1000.0 nM
[15] = molecular target: cGMP-dependent 3',5'-cyclic phosphodiesterase (Homo sapiens) (UniProt O00408); assay: PDE2 (h) CEREP ligand profiling; conditions: Compound concentration 10.0 uM
[16] = molecular target: Cyclin-dependent kinase 18 (Homo sapiens) (UniProt Q07002); conditions: Compound concentration 1000.0 nM
[17] = molecular target: T2, 5-hydroxytryptamine receptor 2C (Homo sapiens) (UniProt P28335); assay: 5-HT2C (h) CEREP ligand profiling; conditions: Compound concentration 10.0 uM
T2 sequence (whole entry): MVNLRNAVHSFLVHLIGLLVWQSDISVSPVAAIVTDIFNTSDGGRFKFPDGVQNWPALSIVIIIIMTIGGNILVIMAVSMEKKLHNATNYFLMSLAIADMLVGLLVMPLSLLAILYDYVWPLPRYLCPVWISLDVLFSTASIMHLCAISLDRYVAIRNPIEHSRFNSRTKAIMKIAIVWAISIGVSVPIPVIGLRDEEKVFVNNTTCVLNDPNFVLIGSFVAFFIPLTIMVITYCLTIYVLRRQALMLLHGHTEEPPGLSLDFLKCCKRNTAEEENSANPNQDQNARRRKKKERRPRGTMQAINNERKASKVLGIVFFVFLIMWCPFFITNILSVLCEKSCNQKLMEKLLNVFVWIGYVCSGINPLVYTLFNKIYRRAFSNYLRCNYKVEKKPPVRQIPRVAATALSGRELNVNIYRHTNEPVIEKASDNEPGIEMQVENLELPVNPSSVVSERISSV

[18] = molecular target: Cholecystokinin receptor type A (Homo sapiens) (UniProt P32238); assay: CCKA (h) (CCK1) CEREP ligand profiling; conditions: Compound concentration 10.0 uM
[19] = molecular target: Serine/threonine-protein kinase PLK3 (Homo sapiens) (UniProt Q9H4B4); conditions: Compound concentration 1000.0 nM
[20] = molecular target: Tyrosine-protein kinase Mer (Homo sapiens) (UniProt Q12866); conditions: Compound concentration 1000.0 nM
[21] = test system: Receptor-type tyrosine-protein kinase FLT3 (Homo sapiens), P36888 [N841I]; conditions: Compound concentration 1000.0 nM
[22] = molecular target: Tyrosine-protein kinase JAK1 (Homo sapiens) (UniProt P23458); conditions: Compound concentration 1000.0 nM
[23] = molecular target: Mitogen-activated protein kinase kinase kinase 14 (Homo sapiens) (UniProt Q99558); conditions: Compound concentration 1000.0 nM
[24] = molecular target: T3, D(4) dopamine receptor (Homo sapiens) (UniProt P21917); assay: D4.4 (h) CEREP ligand profiling; conditions: Compound concentration 10.0 uM
T3 sequence (whole entry): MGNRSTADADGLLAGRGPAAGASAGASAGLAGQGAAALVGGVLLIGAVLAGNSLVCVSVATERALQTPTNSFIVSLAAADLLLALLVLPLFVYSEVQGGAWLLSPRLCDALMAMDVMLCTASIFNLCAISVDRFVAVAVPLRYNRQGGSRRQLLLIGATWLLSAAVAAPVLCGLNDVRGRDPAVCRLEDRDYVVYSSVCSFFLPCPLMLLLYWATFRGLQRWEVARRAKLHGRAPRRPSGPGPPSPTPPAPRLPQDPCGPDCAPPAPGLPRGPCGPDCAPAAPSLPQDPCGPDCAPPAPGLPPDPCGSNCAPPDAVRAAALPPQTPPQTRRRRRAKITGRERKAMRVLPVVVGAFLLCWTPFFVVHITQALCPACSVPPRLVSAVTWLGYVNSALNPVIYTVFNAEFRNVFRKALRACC

[25] = molecular target: 5'-AMP-activated protein kinase catalytic subunit alpha-2 (Homo sapiens) (UniProt P54646); conditions: Compound concentration 1000.0 nM

Chain of RAC-gamma serine/threonine-protein kinase (Homo sapiens) (Q9Y243 whole entry): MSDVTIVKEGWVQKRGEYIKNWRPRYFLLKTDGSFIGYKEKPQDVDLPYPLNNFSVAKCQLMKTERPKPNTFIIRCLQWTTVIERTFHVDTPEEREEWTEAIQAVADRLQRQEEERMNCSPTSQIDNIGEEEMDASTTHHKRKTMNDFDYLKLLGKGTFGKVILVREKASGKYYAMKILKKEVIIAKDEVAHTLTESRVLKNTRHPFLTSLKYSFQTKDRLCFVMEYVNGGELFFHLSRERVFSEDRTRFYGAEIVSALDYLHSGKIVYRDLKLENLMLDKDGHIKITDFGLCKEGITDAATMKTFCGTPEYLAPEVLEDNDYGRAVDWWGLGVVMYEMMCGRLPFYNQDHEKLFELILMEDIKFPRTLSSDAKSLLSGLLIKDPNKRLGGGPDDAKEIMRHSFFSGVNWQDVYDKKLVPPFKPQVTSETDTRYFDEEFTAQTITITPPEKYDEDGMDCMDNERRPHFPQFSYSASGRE
Chain of Serine/threonine-protein kinase LATS1 (Homo sapiens) (O95835 whole entry): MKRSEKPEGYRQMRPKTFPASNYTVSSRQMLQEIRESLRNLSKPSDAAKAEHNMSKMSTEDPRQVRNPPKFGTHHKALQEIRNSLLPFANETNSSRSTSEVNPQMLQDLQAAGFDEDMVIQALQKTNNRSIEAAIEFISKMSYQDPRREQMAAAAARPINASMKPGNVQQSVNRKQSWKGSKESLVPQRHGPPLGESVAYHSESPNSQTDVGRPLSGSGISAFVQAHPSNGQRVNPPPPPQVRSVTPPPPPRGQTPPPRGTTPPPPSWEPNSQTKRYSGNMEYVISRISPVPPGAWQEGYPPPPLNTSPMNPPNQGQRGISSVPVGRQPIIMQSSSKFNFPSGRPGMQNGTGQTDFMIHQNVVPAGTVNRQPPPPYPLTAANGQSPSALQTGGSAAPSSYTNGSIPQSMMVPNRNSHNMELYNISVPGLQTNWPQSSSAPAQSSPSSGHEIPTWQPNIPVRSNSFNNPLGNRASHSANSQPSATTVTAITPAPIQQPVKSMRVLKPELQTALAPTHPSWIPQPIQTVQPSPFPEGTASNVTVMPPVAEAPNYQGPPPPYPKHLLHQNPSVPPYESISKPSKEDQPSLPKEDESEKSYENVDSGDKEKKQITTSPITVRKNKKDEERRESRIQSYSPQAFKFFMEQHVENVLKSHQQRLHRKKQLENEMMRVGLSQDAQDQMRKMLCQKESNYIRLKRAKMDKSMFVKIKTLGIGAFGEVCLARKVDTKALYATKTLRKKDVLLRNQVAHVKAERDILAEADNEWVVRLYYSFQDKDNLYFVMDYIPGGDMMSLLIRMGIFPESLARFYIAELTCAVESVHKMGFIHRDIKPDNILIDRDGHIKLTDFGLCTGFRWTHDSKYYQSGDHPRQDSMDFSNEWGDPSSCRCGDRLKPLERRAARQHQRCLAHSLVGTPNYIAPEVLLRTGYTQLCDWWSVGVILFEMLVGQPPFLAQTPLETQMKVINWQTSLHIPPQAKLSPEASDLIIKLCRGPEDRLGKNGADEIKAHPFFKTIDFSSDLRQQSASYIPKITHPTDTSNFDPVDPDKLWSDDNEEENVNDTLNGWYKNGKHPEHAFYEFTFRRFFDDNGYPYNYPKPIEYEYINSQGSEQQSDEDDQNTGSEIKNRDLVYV
Chain of Serine/threonine-protein kinase Nek4 (Homo sapiens) (P51957 whole entry, looked up): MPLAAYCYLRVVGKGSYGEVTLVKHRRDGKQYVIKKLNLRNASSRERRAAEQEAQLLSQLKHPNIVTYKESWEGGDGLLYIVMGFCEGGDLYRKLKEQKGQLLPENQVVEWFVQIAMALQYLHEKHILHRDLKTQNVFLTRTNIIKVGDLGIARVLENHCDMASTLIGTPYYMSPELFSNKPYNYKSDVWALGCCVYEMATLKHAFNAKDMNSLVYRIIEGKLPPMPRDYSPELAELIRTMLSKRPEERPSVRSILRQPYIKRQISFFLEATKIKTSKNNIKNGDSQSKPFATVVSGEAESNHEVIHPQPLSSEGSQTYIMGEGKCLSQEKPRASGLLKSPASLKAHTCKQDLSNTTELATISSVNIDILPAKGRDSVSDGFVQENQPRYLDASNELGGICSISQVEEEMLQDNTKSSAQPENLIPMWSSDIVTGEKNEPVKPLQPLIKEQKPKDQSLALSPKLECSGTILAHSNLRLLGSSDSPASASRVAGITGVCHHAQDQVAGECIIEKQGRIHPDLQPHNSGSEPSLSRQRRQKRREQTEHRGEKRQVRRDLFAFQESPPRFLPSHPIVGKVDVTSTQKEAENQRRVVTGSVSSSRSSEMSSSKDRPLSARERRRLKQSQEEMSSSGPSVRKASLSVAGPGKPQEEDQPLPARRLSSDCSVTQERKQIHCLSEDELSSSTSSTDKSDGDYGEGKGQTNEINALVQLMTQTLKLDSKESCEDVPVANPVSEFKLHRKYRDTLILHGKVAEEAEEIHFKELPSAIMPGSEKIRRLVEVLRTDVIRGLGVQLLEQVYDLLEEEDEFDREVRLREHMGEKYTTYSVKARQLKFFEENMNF
Chain of Cholecystokinin receptor type A (Homo sapiens) (P32238 whole entry): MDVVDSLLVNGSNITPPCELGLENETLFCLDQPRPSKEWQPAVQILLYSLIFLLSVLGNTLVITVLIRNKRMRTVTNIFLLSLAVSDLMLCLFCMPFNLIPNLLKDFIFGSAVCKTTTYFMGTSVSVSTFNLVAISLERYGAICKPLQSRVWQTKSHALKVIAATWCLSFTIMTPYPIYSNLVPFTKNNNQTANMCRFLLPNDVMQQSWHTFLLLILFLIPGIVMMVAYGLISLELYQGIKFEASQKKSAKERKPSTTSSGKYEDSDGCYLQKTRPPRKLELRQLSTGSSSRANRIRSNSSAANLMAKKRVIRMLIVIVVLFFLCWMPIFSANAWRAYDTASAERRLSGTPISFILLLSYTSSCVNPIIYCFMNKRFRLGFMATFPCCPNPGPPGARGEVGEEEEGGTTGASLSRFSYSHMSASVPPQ
Chain of Tyrosine-protein kinase Mer (Homo sapiens) (Q12866 whole entry): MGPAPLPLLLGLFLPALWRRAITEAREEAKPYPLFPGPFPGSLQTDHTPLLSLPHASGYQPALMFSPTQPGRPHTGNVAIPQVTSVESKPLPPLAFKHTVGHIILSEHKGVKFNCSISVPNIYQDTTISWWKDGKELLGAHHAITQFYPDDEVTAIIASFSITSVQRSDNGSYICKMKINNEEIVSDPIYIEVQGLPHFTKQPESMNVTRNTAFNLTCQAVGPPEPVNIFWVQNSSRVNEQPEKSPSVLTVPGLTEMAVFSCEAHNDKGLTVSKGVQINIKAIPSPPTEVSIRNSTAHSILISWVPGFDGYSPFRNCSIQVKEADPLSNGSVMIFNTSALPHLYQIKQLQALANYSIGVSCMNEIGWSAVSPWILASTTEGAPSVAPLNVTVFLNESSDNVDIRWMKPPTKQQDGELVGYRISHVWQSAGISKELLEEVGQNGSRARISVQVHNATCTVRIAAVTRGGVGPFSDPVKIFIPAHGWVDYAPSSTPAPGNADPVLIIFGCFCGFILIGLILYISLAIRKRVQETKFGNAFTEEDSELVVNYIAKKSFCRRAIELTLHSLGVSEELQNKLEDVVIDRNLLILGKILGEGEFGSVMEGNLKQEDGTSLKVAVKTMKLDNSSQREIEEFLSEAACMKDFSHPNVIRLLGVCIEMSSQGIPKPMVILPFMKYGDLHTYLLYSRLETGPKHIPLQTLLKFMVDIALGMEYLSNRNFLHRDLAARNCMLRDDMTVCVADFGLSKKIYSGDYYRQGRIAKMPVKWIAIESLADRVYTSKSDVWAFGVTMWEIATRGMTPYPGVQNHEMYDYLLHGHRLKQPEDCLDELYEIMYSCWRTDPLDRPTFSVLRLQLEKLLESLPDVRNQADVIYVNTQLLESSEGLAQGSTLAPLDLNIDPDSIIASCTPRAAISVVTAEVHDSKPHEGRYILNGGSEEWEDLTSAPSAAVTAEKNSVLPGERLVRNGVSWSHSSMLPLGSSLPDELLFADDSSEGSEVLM
Chain of Rhodopsin kinase GRK7 (Homo sapiens) (Q8WTQ7 whole entry): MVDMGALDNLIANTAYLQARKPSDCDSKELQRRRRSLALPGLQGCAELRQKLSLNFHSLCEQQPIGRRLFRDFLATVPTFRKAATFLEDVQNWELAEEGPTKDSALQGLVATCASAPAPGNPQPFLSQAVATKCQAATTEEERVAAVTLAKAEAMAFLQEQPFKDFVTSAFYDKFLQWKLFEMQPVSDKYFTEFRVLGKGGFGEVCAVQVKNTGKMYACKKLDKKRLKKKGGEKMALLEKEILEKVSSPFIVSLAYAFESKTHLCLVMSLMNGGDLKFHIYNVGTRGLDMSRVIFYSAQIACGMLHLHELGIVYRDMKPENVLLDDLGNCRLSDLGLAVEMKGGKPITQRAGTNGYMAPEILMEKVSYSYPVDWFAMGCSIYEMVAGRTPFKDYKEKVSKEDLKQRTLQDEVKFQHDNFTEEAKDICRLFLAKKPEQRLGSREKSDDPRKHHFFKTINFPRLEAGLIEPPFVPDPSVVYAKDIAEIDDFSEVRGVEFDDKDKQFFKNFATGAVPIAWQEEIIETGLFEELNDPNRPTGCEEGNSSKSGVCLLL
Chain of CYP2D6 (P10635 whole entry): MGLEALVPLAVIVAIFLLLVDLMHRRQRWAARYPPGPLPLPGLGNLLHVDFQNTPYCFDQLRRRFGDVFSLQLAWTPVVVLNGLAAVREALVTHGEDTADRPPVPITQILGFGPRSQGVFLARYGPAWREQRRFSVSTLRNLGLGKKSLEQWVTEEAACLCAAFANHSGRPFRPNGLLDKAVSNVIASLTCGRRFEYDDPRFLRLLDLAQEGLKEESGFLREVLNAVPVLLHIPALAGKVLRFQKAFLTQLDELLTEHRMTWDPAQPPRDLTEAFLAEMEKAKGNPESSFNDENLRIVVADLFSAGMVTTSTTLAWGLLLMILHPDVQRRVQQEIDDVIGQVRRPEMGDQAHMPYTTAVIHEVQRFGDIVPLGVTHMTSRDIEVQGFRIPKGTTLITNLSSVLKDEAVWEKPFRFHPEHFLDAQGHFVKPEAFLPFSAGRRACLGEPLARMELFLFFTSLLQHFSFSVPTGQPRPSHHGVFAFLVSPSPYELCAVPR

O=C(c1ccc(F)cc1)N1CC(COc2ccc(Br)cc2)(C(=O)O)C1 [PF-04475866]
inactive: inhibition [1] 6.07%

COc1ccc2cc(OCC3(C(=O)O)CN(C(=O)c4ccc(F)cc4)C3)ccc2c1 [PF-04418948]
3.5 µM: IC50 (Phosphodiesterase 3)
18% (not active): inhibition at 10 µM (CYP2D6)
active: residual activity [25] 28%
inactive: residual activity [2] 92% | residual activity [3] 93% | residual activity [4] 87% | residual activity [5] 92% | residual activity [6] 93% | inhibition [7] 4% | inhibition (Phosphodiesterase 3; Compound concentration 10.0 uM) 78% | residual activity [8] 87% | residual activity [9] 88% | inhibition [10] 26% | residual activity [11] 90% | residual activity [12] 83% | residual activity [13] 94% | residual activity [14] 81% | inhibition [15] 5% | residual activity [16] 98% | inhibition [17] 8% | inhibition [18] 29% | residual activity [19] 95% | residual activity [20] 80% | residual activity [21] 76% | residual activity [22] 93% | residual activity [23] 82% | inhibition [24] -8%
